# Assay results published in patent US20150105252A1, “SUBSTITUTED PYRAZOLES AS HERBICIDES” (E I DU PONT DE NEMOURS AND COMPANY, priority 2013, published 2015).
# Experiments:
# oat, wild = assay: Test C postemergence; type: in vivo, Avena fatua; conditions: for Plant response rating (scale of 0 to 100 where 0 is no effect and 100 is complete control), Oat, Wild: Postemergence, 31 g ai/ha, visually evaluated after 13 to 15 days; for Oat, Wild plant response rating / Plant response rating, Oat, Wild: postemergence; for Oat, Wild plant response rating: 62 g ai/ha, scale 0 to 100
# Summary of the method: (§1)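 Postemergence values come from plants sprayed at the 1- to 4-leaf stage (2–18 cm) in peat moss–vermiculite medium; preemergence values from seeds treated in a loam–sand blend. Both evaluated visually against controls after 13–15 greenhouse days, scale 0–100.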
# barnyardgrass = assay: Test B flood; type: in vivo, Echinochloa crus-galli; conditions: 250 g ai/ha, visual rating on 0 to 100 scale (0 no effect, 100 complete control), 13 to 15 days
# Summary of the method: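 Flooded-pot test: compound dosed into 3 cm of standing water above soil when plants had two leaves. Visual control ratings (0–100) versus untreated plants after 13–15 d.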
# foxtail, giant = assay: Test C preemergence; type: in vivo, Setaria faberii; conditions: preemergence; for Plant response rating, Foxtail, Giant: 125 g ai/ha, scale 0 to 100, 0 = no effect, 100 = complete control
# Summary of the method: as §1
# oilseed rape [1] = assay: Test C postemergence; type: in vivo, Brassica napus; conditions: for Oilseed Rape plant response rating / Plant response rating, Oilseed Rape: postemergence; for Oilseed Rape plant response rating: 62 g ai/ha, scale 0 to 100
# Summary of the method: as §1
# nutsedge, yellow = assay: Test C postemergence; type: in vivo, Cyperus esculentus; conditions: for Plant response rating (scale of 0 to 100 where 0 is no effect and 100 is complete control), Nutsedge, Yellow: Postemergence, 31 g ai/ha, visually evaluated after 13 to 15 days; for Nutsedge, Yellow plant response rating / Plant response rating, Nutsedge, Yellow: postemergence; for Nutsedge, Yellow plant response rating: 62 g ai/ha, scale 0 to 100
# Summary of the method: as §1
# ragweed [2] = assay: Test C preemergence; type: in vivo, Ambrosia elation; conditions: preemergence; for Plant response rating, Ragweed: 125 g ai/ha, scale 0 to 100, 0 = no effect, 100 = complete control
# Summary of the method: as §1
# pigweed [3] = assay: Test C preemergence; type: in vivo, Amaranthus retroflexus; conditions: preemergence; for Plant response rating, Pigweed: 125 g ai/ha, scale 0 to 100, 0 = no effect, 100 = complete control
# Summary of the method: as §1
# oilseed rape [4] = assay: Test C preemergence; type: in vivo, Brassica napus; conditions: preemergence; for Plant response rating, Oilseed Rape: 125 g ai/ha, scale 0 to 100, 0 = no effect, 100 = complete control
# Summary of the method: as §1
# pigweed [5] = assay: Test A preemergence; type: in vivo, Amaranthus retroflexus; conditions: preemergence
# Summary of the method: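 Visual injury rating, 0–100 (0 no effect, 100 complete control), vs untreated controls ~10 days after treatment in greenhouse. Pre: directed soil spray on seeded loam/sand. Post: 2–10 cm plants, 1–2 leaf stage. Formulation: non-phytotoxic solvent mix + surfactant.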
# ragweed [6] = assay: Test C postemergence; type: in vivo, Ambrosia elation
# Summary of the method: as §1
# kochia = assay: Test C postemergence; type: in vivo, Kochia scoparia; conditions: for Plant response rating (scale of 0 to 100 where 0 is no effect and 100 is complete control), Kochia: Postemergence, 31 g ai/ha, visually evaluated after 13 to 15 days; for Kochia plant response rating / Plant response rating, Kochia: postemergence; for Kochia plant response rating: 62 g ai/ha, scale 0 to 100
# Summary of the method: as §1
# soybean = assay: Test C postemergence; type: in vivo, Glycine max; conditions: for Plant response rating, Soybean / Soybean plant response rating: postemergence
# Summary of the method: as §1
# [7] = 250 g ai/ha, scale 0 to 100 (0 no effect, 100 complete control)
# [8] = 125 g ai/ha, scale 0 to 100, 0 no effect, 100 complete control
# [9] = 31 g ai/ha, visual rating, scale 0 to 100 (0 no effect, 100 complete control), 13 to 15 days
# [10] = 62 g ai/ha, scale 0 to 100 (0 no effect, 100 complete control), 13 to 15 days
# [11] = 250 g ai/ha, scale 0 to 100, 0 is no effect, 100 is complete control
# [12] = 500 g ai/ha, visual injury after approx. 10 days, 0 to 100 scale (0 no effect, 100 complete control)
# [13] = postemergence, 250 g ai/ha, scale 0 to 100 (0 no effect, 100 complete control)
# [14] = postemergence, 125 g ai/ha, scale 0 to 100, 0 no effect, 100 complete control
# [15] = Postemergence, 31 g ai/ha, visually evaluated after 13 to 15 days
structure (smiles),measurement,setting,value
CCCNC(=O)c1cc(CCF)n(Cc2ccnc(C(F)(F)F)c2)n1 [Compound 177],"Plant response rating (scale of 0 to 100 where 0 is no effect and 100 is complete control), Oat, Wild","oat, wild",5
same,"Oat, Wild plant response rating","oat, wild",5
same,"Plant response rating, Oat, Wild","oat, wild; [7]",40
same,"Plant response rating, Oat, Wild","oat, wild; [8]",15
same,"Plant response rating, Barnyardgrass",barnyardgrass,60
same,"Foxtail, Giant plant response rating","foxtail, giant; [9]",85
same,"Foxtail, Giant plant response rating","foxtail, giant; [10]",98
same,"Plant response rating, Foxtail, Giant","foxtail, giant; 13 to 15 days",100
same,"Foxtail, Giant plant response rating","foxtail, giant; [11]",100
same,Oilseed Rape plant response rating,oilseed rape [1],50
same,"Plant response rating, Oilseed Rape",oilseed rape [1]; [7],70
same,"Plant response rating, Oilseed Rape",oilseed rape [1]; [8],60
same,"Plant response rating (scale of 0 to 100 where 0 is no effect and 100 is complete control), Nutsedge, Yellow","nutsedge, yellow",10
same,"Nutsedge, Yellow plant response rating","nutsedge, yellow",5
same,"Plant response rating, Nutsedge, Yellow","nutsedge, yellow; [7]",15
same,"Plant response rating, Nutsedge, Yellow","nutsedge, yellow; [8]",5
same,Ragweed plant response rating,ragweed [2]; [9],75
same,Ragweed plant response rating,ragweed [2]; [10],85
same,"Plant response rating, Ragweed",ragweed [2]; 13 to 15 days,98
same,Ragweed plant response rating,ragweed [2]; [11],98
same,Pigweed plant response rating,pigweed [3]; [9],100
same,Pigweed plant response rating,pigweed [3]; [10],100
same,"Plant response rating, Pigweed",pigweed [3]; 13 to 15 days,100
same,Pigweed plant response rating,pigweed [3]; [11],100
same,Oilseed Rape plant response rating,oilseed rape [4]; [9],70
same,Oilseed Rape plant response rating,oilseed rape [4]; [10],60
same,"Plant response rating, Oilseed Rape",oilseed rape [4]; 13 to 15 days,90
same,Oilseed Rape plant response rating,oilseed rape [4]; [11],95
same,Pigweed plant response rating (0 to 100 scale),"pigweed [5]; 125 g ai/ha, visual injury approx. 10 days after treatment",100
same,Pigweed plant response rating,pigweed [5]; [12],100
same,"Plant response rating, Ragweed",ragweed [6]; [13],75
same,"Plant response rating, Ragweed",ragweed [6]; [14],70
same,"Plant response rating (scale of 0 to 100 where 0 is no effect and 100 is complete control), Kochia",kochia,60
same,Kochia plant response rating,kochia,85
same,"Plant response rating, Kochia",kochia; [7],90
same,"Plant response rating, Kochia",kochia; [8],90
same,"Plant response rating, Soybean",soybean; [7],95
same,Soybean plant response rating,soybean; [8],90
CCCNC(=O)c1cc(OCC)n(Cc2ccnc(OC(F)F)c2)n1 [Compound 136],"Plant response rating (scale of 0 to 100 where 0 is no effect and 100 is complete control), Oat, Wild","oat, wild",5
same,"Oat, Wild plant response rating","oat, wild",5
same,"Plant response rating, Oat, Wild","oat, wild; [7]",45
same,"Plant response rating, Oat, Wild","oat, wild; [8]",10
same,"Plant response rating, Barnyardgrass",barnyardgrass,50
same,"Foxtail, Giant plant response rating","foxtail, giant; [9]",100
same,"Foxtail, Giant plant response rating","foxtail, giant; [10]",100
same,"Plant response rating, Foxtail, Giant","foxtail, giant; 13 to 15 days",100
same,"Foxtail, Giant plant response rating","foxtail, giant; [11]",100
same,"Plant response rating (scale of 0 to 100 where 0 is no effect and 100 is complete control), Oilseed Rape",oilseed rape [1]; [15],60
same,Oilseed Rape plant response rating,oilseed rape [1],60
same,"Plant response rating, Oilseed Rape",oilseed rape [1]; [7],85
same,"Plant response rating, Oilseed Rape",oilseed rape [1]; [8],70
same,"Plant response rating (scale of 0 to 100 where 0 is no effect and 100 is complete control), Nutsedge, Yellow","nutsedge, yellow",5
same,"Nutsedge, Yellow plant response rating","nutsedge, yellow",5
same,"Plant response rating, Nutsedge, Yellow","nutsedge, yellow; [7]",5
same,"Plant response rating, Nutsedge, Yellow","nutsedge, yellow; [8]",5
same,Ragweed plant response rating,ragweed [2]; [9],45
same,Ragweed plant response rating,ragweed [2]; [10],75
same,"Plant response rating, Ragweed",ragweed [2]; 13 to 15 days,75
same,Ragweed plant response rating,ragweed [2]; [11],98
same,Pigweed plant response rating,pigweed [3]; [9],70
same,Pigweed plant response rating,pigweed [3]; [10],70
same,"Plant response rating, Pigweed",pigweed [3]; 13 to 15 days,60
same,Pigweed plant response rating,pigweed [3]; [11],100
same,Oilseed Rape plant response rating,oilseed rape [4]; [9],100
same,Oilseed Rape plant response rating,oilseed rape [4]; [10],100
same,"Plant response rating, Oilseed Rape",oilseed rape [4]; 13 to 15 days,100
same,Oilseed Rape plant response rating,oilseed rape [4]; [11],100
same,Pigweed plant response rating,"pigweed [5]; 125 g ai/ha, visual injury, 0 to 100 scale, approx. 10 days",100
same,Pigweed plant response rating,pigweed [5]; [12],100
same,"Plant response rating (scale of 0 to 100 where 0 is no effect and 100 is complete control), Ragweed",ragweed [6]; [15],15
same,Ragweed plant response rating,"ragweed [6]; postemergence, 62 g ai/ha, scale 0 to 100",35
same,"Plant response rating, Ragweed",ragweed [6]; [13],70
same,"Plant response rating, Ragweed",ragweed [6]; [14],40
same,"Plant response rating (scale of 0 to 100 where 0 is no effect and 100 is complete control), Kochia",kochia,90
same,Kochia plant response rating,kochia,90
same,"Plant response rating, Kochia",kochia; [7],90
same,"Plant response rating, Kochia",kochia; [8],90
same,"Plant response rating (scale of 0 to 100 where 0 is no effect and 100 is complete control), Soybean",soybean; [15],90
same,Soybean plant response rating,"soybean; 62 g ai/ha, scale 0 to 100",70
same,"Plant response rating, Soybean",soybean; [7],95
same,"Plant response rating, Soybean",soybean; [8],95
